{
  "source": "patent US9539221B2",
  "about": "“Method of treating airway diseases with β-adrenergic inverse agonists” (EGB ADVISORS, LLC, priority 2003, dated 2017)",
  "key": {"asthmatic mice [1]": {"system": "asthmatic mice", "conditions": "same mouse asthma model, Callaerts-Vegh et al. 2004, cited from earlier work"}, "β2-adrenergic receptor [2]": {"system": "β2-adrenergic receptor", "experiment": "Immunohistochemistry of β2-adrenergic receptor levels in lung sections", "type": "in vivo, mice", "conditions": "chronic treatment versus untreated animals; epifluorescent microscopy", "experimental": "The mice were sacrificed and the lungs excised. […] Lungs were embedded in OCT and 12-μm sections cut with a Tissue-Tek II cryostat. […] After 3 washes in PBS, the slides were blocked with 5% milk in PBS for 1 h, and then incubated overnight with anti-β2-adrenergic receptor antibody (1:200, Santa Cruz Biotechnology) in blocking solution. Slides were washed in PBS and incubated with secondary antibody (1:200, Cy3 goat anti-rabbit, 16 h at 4° C.). […] After washing with PBS, coverslips were mounted and viewed by epifluorescent microscopy."}, "asthmatic mice [3]": {"system": "asthmatic mice", "experiment": "Airway resistance (Raw) response to methacholine provocation in murine model of asthma (forced oscillation)", "type": "in vivo, Balb/cJ mice", "procedure": "Balb/cJ mice aged 6 weeks (Jackson Animal Laboratory, Bar Harbor, Me.) were housed under specific pathogen-free conditions and fed a chicken ovalbumin-free diet. The Animal Research Ethics Boards of both the University of Houston and the Baylor College of Medicine approved all experiments reported here. […] Mice were sensitized with subcutaneous injection of 25 μg of ovalbumin adsorbed to aluminum hydroxide on protocol days 2, 9, and 16. Subsequently, mice were given 50 μL of saline solution containing 25 μg of ovalbumin intranasally, on a daily basis, from protocol days 23 through 27. A group of ovalbumin-sensitized saline-challenged mice serves as controls for systemic sensitization and respiratory challenges with ovalbumin. Prior to intranasal administrations, mice were sedated with halothane vapor.\nTo examine the effects of duration of β-adrenergic ligand therapy on the phenotype of the murine model of asthma, the experimental drugs were administered either acutely or chronically to different groups of asthmatic mice.\nAsthmatic mice on acute therapy were given a single intravenous bolus infusion of either β-adrenergic drug or normal saline on protocol day 28, 15 minutes before airway responsiveness to methacholine was determined. […] Asthmatic mice on chronic therapy were treated with the β-adrenergic drug during protocol days 1 to 28. […] These concentrations were chosen based on those producing therapeutic effects in mice in previously published studies. The non-asthmatic mice were fed normal chow.\nOn protocol day 28, mice were anesthetized, tracheotomized, and connected to a computer-controlled small animal ventilator (Flexivent, Scientific Respiratory Equipment, Inc., Montreal, Canada). Airway resistance (Raw) was measured using the forced oscillation technique. The cellular composition of bronchoalveolar lavage fluid (BALF) was also determined.\nTo induce airway constriction, a solution containing 150 μg/mL of acetyl-α-methylcholine chloride (methacholine) (Sigma Chemical, St. Louis, Mo.) was infused intravenously at constant rates using a syringe infusion pump (Raze Scientific Instruments, Stanford, Conn.). […] Each methacholine dose was administered for 3 to 5 minutes, during which data were sampled at 1-minute intervals and then averaged.\nThe complex input impedance of the respiratory system was computed and the value of the real part of respiratory system impedance at 19.75 Hz was taken to reflect the magnitude of airway resistance (Raw). To examine the degree of airway responsiveness of each animal, the values for Raw as a function of methacholine doses were plotted. The largest value for Raw achieved in response to methacholine stimulation was referred to as Rawpeak. For mice that achieved a plateau in the methacholine dose-Raw response curve, the ED50 was calculated by linear interpolation using the GraphPad Prism4 (GraphPad Software, Inc.). […] The Bonferroni test was used to examine the statistical differences between experimental groups. The effects of acute drug treatments on baseline respiratory system mechanics were assessed using a two-tailed paired t-test. A value of P<0.05 was considered significant.\nFor these experiments, salbutamol was used for chronic administration at 0.5 mg/kg/day with a minipump and for acute administration at 0.15 mg/kg by i.v. bolus 15 minutes prior to challenge. Alprenolol was used at a high dose of 7200 ppm in chow or at a low dose of 720 ppm in chow. Carvedilol was used at a high dose of 2400 ppm in chow or at a low dose of 720 ppm in chow."}, "[4]": {"system": "sensitized and allergen-challenged mice", "experiment": "Acute nadolol with aminophylline, methacholine-induced bronchoconstriction", "type": "in vivo", "conditions": "nadolol 0.72 mg/kg i.p. 15 minutes prior to methacholine challenge", "procedure": "Mice were sensitized to the allergen ovalbumin as described in Example 1. […] At time point 1 (time=−10 min) baseline airway resistance of the mice was determined. At time point 2 (time=−5 min) methacholine was infused into mice to reach their EC70."}, "Phospholipase C (PLC-β1)": {"system": "Phospholipase C (PLC-β1)", "experiment": "Ratio of phospholipase C to actin by immunoblotting in cultured tracheal smooth muscle cells of treated mice", "type": "cell-based", "conditions": "asthmatic mice, chronic nadolol high dose treatment", "excerpt": "Cultured tracheal smooth muscle cells were obtained from mice exposed to the following treatments: NS/NC=nonasthmatic, non-challenged mice; S/C=asthmatic mice; Sal.Ac=asthmatic mice, acute salbutamol treatment; Sal.Ch=asthmatic mice, chronic salbutamol treatment; Nad.Ac=asthmatic mice, acute nadolol high dose treatment; and Nad.Ch=asthmatic mice, chronic nadolol high dose treatment.\nAfter airway function experiments, the trachea were surgically removed from anesthetized mice that had been treated with drugs or vehicle. The trachea was minced and the cells plated and grown in culture. The smooth muscle cells grow faster and take over the culture dish. The cells were grown in medium which contained the drugs used in the treatment or vehicle controls. Phospholipase C (PLC-β1) was determined by immunoblotting with an antibody specific for the enzyme. Actin was used as a loading control and the amount of PLC-β1 was expressed as a ratio to actin.\nThe phospholipase C protein level was measured in these cultured cells and compared with the level of the structural protein actin as a baseline. The enzyme phospholipase C plays a key role in the pathway leading to asthmatic symptoms, as it cleaves a phosphodiester bond in membrane phospholipids, resulting in the formation of a 1,2-diglyceride. […]"}, "β2-adrenergic receptor [5]": {"system": "β2-adrenergic receptor", "experiment": "β-adrenergic receptor density in lung membranes of treated asthmatic mice by ICYP radioligand binding", "type": "in vivo", "conditions": "2 days of administration", "procedure": "(§1) β2-adrenergic receptor numbers were measured in asthmatic mice as follows. […] Mice were sacrificed and lung membranes were isolated as follows. Frozen lung tissue was homogenized in an ice-cold buffer containing 0.32 M sucrose and 25 mM Tris (pH 7.4) using a polytron (Pro 200, Pro Scientific, Inc.). The homogenate was centrifuged at 1000×g for 10 min at 4° C. The resulting supernatant was centrifuged at 40,000×g for 20 min at 4° C. The pellet was suspended in an ice-cold 25 mM Tris-HCl buffer (pH 7.4) and centrifuged at 40,000×g for 20 min at 4° C. The final pellet was suspended in 200 μL of 25 mM Tris-HCl (pH 7.4); membrane protein concentration was determined by BCA protein assay kit. […] The incubation was done at 37° C. for 2 h and terminated by rapid vacuum filtration through glass fiber filters. The filters were washed three times with 250 μL of cold wash buffer (25 mM Tris-HCl, pH 7.4) and the radioactivity determined in a counter. […] Receptor densities are expressed as femtomoles of sites per milligram of protein. Bmax is determined by nonlinear regression of the saturation binding curves."}, "β2-adrenergic receptor [6]": {"target": "β2-adrenergic receptor (Mus musculus, UniProt P18762)", "sequence (P18762 whole entry)": "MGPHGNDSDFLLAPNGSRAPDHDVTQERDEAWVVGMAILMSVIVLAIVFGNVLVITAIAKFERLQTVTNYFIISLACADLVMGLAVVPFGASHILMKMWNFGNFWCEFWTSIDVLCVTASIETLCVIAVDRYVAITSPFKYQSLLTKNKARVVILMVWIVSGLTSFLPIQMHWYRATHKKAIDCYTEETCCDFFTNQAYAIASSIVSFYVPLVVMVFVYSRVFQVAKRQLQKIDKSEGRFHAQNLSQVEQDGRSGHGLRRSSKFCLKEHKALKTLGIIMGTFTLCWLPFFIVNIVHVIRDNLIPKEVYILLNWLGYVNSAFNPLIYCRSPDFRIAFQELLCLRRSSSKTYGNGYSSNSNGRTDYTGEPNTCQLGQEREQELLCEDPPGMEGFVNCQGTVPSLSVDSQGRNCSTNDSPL", "experiment": "β-adrenergic receptor density in lung membranes of treated asthmatic mice by ICYP radioligand binding", "type": "in vivo", "procedure": "as §1"}},
  "note": "“Also recorded” adds a separate entry of the source. Read-outs that look alike come from different tables or passages of the source.",
  "data": [
    {"compound": "CC(C)(C)NCC(O)COc1cccc2c1CC(O)C(O)C2", "note": "(centres unmarked) [Nadolol, nadolol]", "values": [
      {"measurement": "airway hyperresponsiveness", "setting": "asthmatic mice [1]; administered acutely", "value": "worsens airway hyperresponsiveness"},
      {"measurement": "airway hyperresponsiveness", "setting": "asthmatic mice [1]; administered chronically", "value": "prevents airway hyperresponsiveness"},
      {"measurement": "labeling with anti-β2-adrenergic receptor antibodies in lungs", "setting": "β2-adrenergic receptor [2]", "value": "considerably more intense; also recorded: increase in β-adrenergic receptor density"},
      {"measurement": "airway resistance (Raw)", "setting": "asthmatic mice [3]; 1 ppm in chow", "value": "identical to the untreated mice"},
      {"measurement": "airway responsiveness to methacholine provocation (airway resistance, Raw)", "setting": "asthmatic mice [3]; asthmatic mice, chronic: 28 days (chow; salbutamol by osmotic minipump)", "value": "produced a decrease in airway responsiveness, which was more pronounced than that caused by carvedilol treatment; also recorded: reduced the responsiveness of asthmatic mice to methacholine provocation"},
      {"measurement": "protection from airway hyperresponsiveness", "setting": "asthmatic mice [3]; chronic administration, high and low dose in chow (Example 6)", "value": "providing protection from airway hyperresponsiveness"},
      {"measurement": "baseline airway resistance", "setting": "[4]", "value": "same baseline airway resistance as non-drug treated sensitized and allergen-challenged mice"},
      {"measurement": "ratio of phospholipase C to actin", "setting": "Phospholipase C (PLC-β1)", "value": "significantly decreases the activity of phospholipase C"},
      {"measurement": "Increased β2AR density", "setting": "β2-adrenergic receptor [5]", "value": "yes"},
      {"measurement": "Increased β2AR density", "setting": "β2-adrenergic receptor [5]; listed as nadolol", "value": "showed an increase in receptor density"},
      {"measurement": "Bmax (β-adrenergic receptor density)", "setting": "β2-adrenergic receptor [6]; 15 Minutes drug treatment, lung membranes of asthmatic mice, mean±SEM", "value": "181.9 ± 48.28 femtomoles of sites per milligram of protein"},
      {"measurement": "βmax (β-adrenergic receptor density)", "setting": "β2-adrenergic receptor [6]; 28 Days drug treatment, lung membranes of asthmatic mice, mean±SEM", "value": "785.5 ± 154.8 femtomoles of sites per milligram of protein"},
      {"measurement": "Increased β2AR density", "setting": "β2-adrenergic receptor [6]; 28 days of administration", "value": "showed an increase in receptor density"},
      {"measurement": "increase of the level of β2-adrenergic receptors over the non-treated mice", "setting": "β2-adrenergic receptor [6]; chronic administration, versus untreated methacholine-challenged asthmatic mice", "value": "nearly eightfold increase"}
    ]}
  ]
}
